Laboratory results as given in patent US20110318393A1, “Substituted Pyrazole Compounds” (MIIKANA THERAPEUTICS, INC., priority 2008, published 2011).

Tests used:
Type in all cases: biochemical
recombinant Aurora A = target: T1, recombinant Aurora A (Homo sapiens, UniProt O14965); test: Aurora A (Aurora 2) inhibition assay, Z'-Lyte kinase assay; conditions: ATP 10 μM, 1 h; less than or equal to 100 nM
T1 construct: purchased Upstate, Lake Placid, N.Y
T1 sequence (O14965 1-403): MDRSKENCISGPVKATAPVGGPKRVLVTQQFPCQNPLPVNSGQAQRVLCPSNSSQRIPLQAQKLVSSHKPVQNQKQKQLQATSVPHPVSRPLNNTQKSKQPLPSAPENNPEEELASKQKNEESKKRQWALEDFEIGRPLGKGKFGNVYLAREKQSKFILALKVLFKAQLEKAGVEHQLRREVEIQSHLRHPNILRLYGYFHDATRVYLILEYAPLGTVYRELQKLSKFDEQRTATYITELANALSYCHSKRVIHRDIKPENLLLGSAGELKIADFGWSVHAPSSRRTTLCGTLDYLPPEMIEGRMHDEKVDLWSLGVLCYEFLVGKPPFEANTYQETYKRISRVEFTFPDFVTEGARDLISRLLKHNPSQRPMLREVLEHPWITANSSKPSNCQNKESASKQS
Method: Compounds were tested for their potency against recombinant Aurora A (Upstate, Lake Placid, N.Y.) using the PanVera Z′-Lyte kinase assay kit-Ser/Thr 1 peptide (Invitrogen, Carlsbad, Calif.). Assays were carried out in kinase assay buffer (50 mM HEPES, pH 7.5, 10 mM MgCl2, 5 mM EGTA, 0.05% Brij-35, 2 mM DTT). Test compounds were initially dissolved in DMSO at 100× the highest tested concentration, then serially diluted to 4× test concentrations in kinase assay buffer. Next, Aurora A (final concentration 200-500 ng/mL), Z′-Lyte Ser/Thr 1 peptide (final concentration 2 μM) and ATP (final concentration 10 μM) were added according to the manufacturer's instructions. Assays were carried out in half-area 96-well white polystyrene assay plates (Corning, Corning, N.Y.) in a final volume of 20 μl. The reaction was allowed to proceed for 1 h at room temperature in the dark, at which point the development reagent and stop reagent were added according to the manufacturer's instructions. Coumarin (Ex. 400 nm, Em. 465 nm) and fluorescein (Ex. 400 nm, Em. 565 nm) fluorescence values were measured on a SpectraFluor Plus plate reader (Tecan, Durham, N.C.). The emission ratio (coumarin/fluorescein) was determined and used to calculate the percent phosphorylation for each well. Wells containing substrate but no kinase and wells containing a phosphopeptide control were used to set 0% and 100% phosphorylation values, respectively. Typically 20-40% of the substrate was phosphorylated in wells without inhibitor. Dose-response curves of relative Aurora A activity vs. inhibitor concentration were plotted with Grafit (Erithacus Software, Horley, Surrey, UK).

[1] = target: T2, N-terminal His-tagged human Src (Homo sapiens, UniProt P12931); test: Src kinase inhibition assay (33P-ATP filter assay); conditions: 40 minutes, room temperature; less than or equal to 100 nM
T2 construct: His (N); purchased Upstate USA Inc, Charlottesville, Va
Method: Compounds were assayed for Src kinase inhibitory activity using N-terminal His-tagged human Src (Upstate USA Inc, 706 Forest Street, Charlottesville, Va.). Serial dilutions of compound were assayed in a final reaction volume of 25 μL by incubating a solution of the above Src kinase (5-10 mU), 8 mM MOPS (3-(N-morpholino)propanesulfonic acid) pH 7.0, 0.2 mM EDTA (ethylenediamine tetracetic acid), 250 μM amino acid sequence KVEKIGEGTYGVVYK (Upstate USA Inc, 706 Forest Street, Charlottesville, Va.), and 10 mM magnesium acetate and [γ-^33P-ATP] (specific activity of about 500 cpm/pmol, concentration as required). The reaction was initiated by the addition of the magnesium acetate and [γ-^33P-ATP] mixture. After incubation for 40 minutes at room temperature, the reaction was stopped by the addition of 5 μL of a 3% phosphoric acid solution. A 10 μL aliquote of the reaction was then spotted onto a P30 filtermat (PerkinElmer, Wellesley, Mass.) and washed three times for five minutes in 75 mM phosphoric acid and once in methanol prior to drying and scintillation counting. Inhibition of Src activity was determined by comparison to assays that contained no inhibitor.

[2] = target: T3, N-terminal GST-tagged recombinant human Flt3, residues 564-end (Homo sapiens, UniProt P36888); test: Flt3 kinase inhibition assay (33P-ATP filter assay); conditions: 40 minutes, room temperature; less than or equal to 100 nM
T3 construct: recombinant human Flt3, residues 564-end; GST (N); purchased Upstate USA Inc, Charlottesville, Va
T3 sequence (P36888 564-993 limits assumed): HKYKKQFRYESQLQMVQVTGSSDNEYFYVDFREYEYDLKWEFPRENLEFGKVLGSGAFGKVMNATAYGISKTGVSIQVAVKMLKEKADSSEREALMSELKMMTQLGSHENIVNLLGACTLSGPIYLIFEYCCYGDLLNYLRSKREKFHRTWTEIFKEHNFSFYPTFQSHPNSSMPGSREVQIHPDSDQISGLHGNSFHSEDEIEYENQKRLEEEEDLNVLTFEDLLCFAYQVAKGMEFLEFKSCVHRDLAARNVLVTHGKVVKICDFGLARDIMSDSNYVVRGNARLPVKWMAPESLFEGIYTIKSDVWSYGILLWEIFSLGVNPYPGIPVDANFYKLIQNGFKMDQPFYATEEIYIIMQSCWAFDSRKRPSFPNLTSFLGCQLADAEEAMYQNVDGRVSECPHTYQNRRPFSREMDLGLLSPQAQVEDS
Method: Compounds were assayed for Flt3 kinase inhibitory activity using N-terminal GST-tagged recombinant human Flt3, residues 564-end (Upstate USA Inc, 706 Forest Street, Charlottesville, Va.). Serial dilutions of compound were assayed in a final reaction volume of 25 μL by incubating a solution of the above Flt3 kinase (5-10 mU), 8 mM MOPS (3-(N-morpholino)propanesulfonic acid) pH 7.0, 0.2 mM EDTA (ethylenediamine tetracetic acid), 50 μM amino acid sequence EAIYAAPFAKKK (Upstate USA Inc, 706 Forest Street, Charlottesville, Va.), and 10 mM magnesium acetate and [γ-^33P-ATP] (specific activity of about 500 cpm/pmol, concentration as required). The reaction was initiated by the addition of the magnesium acetate and [γ-^33P-ATP] mixture. After incubation for 40 minutes at room temperature, the reaction was stopped by the addition of 5 μL of a 3% phosphoric acid solution. A 10 μL aliquote of the reaction was then spotted onto a P30 filtermat (PerkinElmer, Wellesley, Mass.) and washed three times for five minutes in 75 mM phosphoric acid and once in methanol prior to drying and scintillation counting. Inhibition of Flt3 activity was determined by comparison to assays that contained no inhibitor.

Measured: IC50

T2 sequence (P12931 whole entry): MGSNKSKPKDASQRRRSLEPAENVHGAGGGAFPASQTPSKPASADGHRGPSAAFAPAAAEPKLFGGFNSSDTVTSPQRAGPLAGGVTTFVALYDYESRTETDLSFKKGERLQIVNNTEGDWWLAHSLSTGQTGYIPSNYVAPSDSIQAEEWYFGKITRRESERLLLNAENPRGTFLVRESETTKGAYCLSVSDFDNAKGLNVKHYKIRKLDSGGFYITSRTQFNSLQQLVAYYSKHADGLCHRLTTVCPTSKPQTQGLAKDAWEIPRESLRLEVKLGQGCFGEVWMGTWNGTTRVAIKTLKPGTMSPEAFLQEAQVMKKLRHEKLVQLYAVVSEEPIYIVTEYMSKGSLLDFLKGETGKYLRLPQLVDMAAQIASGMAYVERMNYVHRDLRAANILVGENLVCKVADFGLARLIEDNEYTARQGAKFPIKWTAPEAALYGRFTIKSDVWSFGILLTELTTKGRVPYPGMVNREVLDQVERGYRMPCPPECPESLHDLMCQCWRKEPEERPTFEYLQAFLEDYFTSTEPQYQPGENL

Cc1cc(Nc2cc(N3CCC(N4CCCCC4)CC3)nc(/C=C/c3ccccc3)n2)n[nH]1 [Compound 5, (E)-6-(1,4′-bipiperidin-1′-yl)-N-(5-methyl-1H-pyrazol-3-yl)-2-styrylpyrimidin-4-amine]
≤ 100 nM: all assays above

Cc1cc(Nc2cc(N3CCN(c4ccncc4)CC3)nc(/C=C/c3ccccc3)n2)n[nH]1 [Compound 22, (E)-N-(5-methyl-1H-pyrazol-3-yl)-6-(4-(pyridin-4-yl)piperazin-1-yl)-2-styrylpyrimidin-4-amine]
≤ 100 nM: all assays above
